B1: Papain: protein-splitting enzyme, plant protease (protein, UniProt P00784 134-345, looked up)
Papain: IPEYVDWRQKGAVTPVKNQGSCGSCWAFSAVVTIEGIIKIRTGNLNEYSEQELLDCDRRSYGCNGGYPWSALQLVAQYGIHYRNTYPYEGVQRYCRSREKGPYAAKTDGVRQVQPYNEGALLYSIANQPVSVVLEAAGKDFQLYRGGIFVGPCGNKVDHAVAAVGYGPNYILIKNSWGTGWGENGYIRIKRGTGNSYGVCGLYTSSFYPVKN

Assays:
[1] = accelerated coffee staining test: hydroxyapatite disks immersed in concentrated coffee with or without additive; details: 7 minutes immersion in coffee (11 grams grounds to 0.5 cups water); uniform scale, 0 = un-stained disk, 5 = coffee without additive
Procedure: Initially, an accelerated staining test was performed using a very strong coffee concentrate with short periods of immersion. This protocol emulates the actual oral staining process; i.e., live teeth aren't generally submerged in coffee for long periods of time since coffee is only held in the mouth for short periods of time, and the residues are rapidly diluted by saliva. In addition, coffee chemistry and pH changes rapidly due to temperature-excited oxidation—which results in significant acid formation in the first 20 minutes after brewing. As a result, coffee immersion in-vitro for times exceeding 20 minutes exposes test-items to a chemical environment which is not representative of that found in a mouth during a typical human consumption of coffee.
As one representative example of multiple tests using CHITOSAN NICOTINATE as an essential substance to prevent staining of hydroxyapatite (as found in tooth enamel), 0.02 grams of CHITOSAN NICOTINATE was placed in one of two containers of coffee brewed with 11.0 grams of coffee grounds to 0.5 cups water. Then disks made of hydroxyapatite were immersed in each container for 7 minutes time; and subsequently compared to establish the degree of staining. For meaningful comparisons of staining, the non-CHITOSAN NICOTINATE coffee was used as the dark stain standard, with an arbitrary value of 5. […]

[2] = stain reversal: coffee-stained hydroxyapatite disk immersed in brewed coffee containing additive; details: previously coffee-stained disk immersed 15 minutes in brewed coffee with additive; original stain 100%, un-stained disk 0%
Procedure: In addition, when a previously-coffee-stained hydroxyapatite disk was half-immersed within the brewed coffee for 15 minutes, the coffee-immersed area was lightened by 10%, where the original stain is said to be 100% and an un-stained disk is said to be 0%.
As one example of multiple tests using protein-splitting enzymes as an essential ingredient to reverse staining of hydroxyapatite, 20 mg of Papain was placed in one container of coffee, which was then brewed with 11 grams of coffee grounds to 0.5 cups water. For this series of tests, only coffee-stained hydroxyapatite disks were then immersed in the freshly brewed coffee for 15 minutes time.

Row | Molecule | degree of staining of hydroxyapatite disks [1] | coffee-immersed stained area lightened by [2] [%]
1 | CS(C)(=O)=O [METHYLSULFONYLMETHANE (DIMETHYLSULFONE), METHYLSULFONYLMETHANE] | 2 | –
2 | B1 | – | 20
